The values below come from patent US10556863B1, “Crystalline form of (R)-4-hydroxy-2-oxo-1-pyrrolidineacetamide, preparation method therefor and use thereof” (CHONGQING RUNZE PHARMACEUTICAL COMPANY LIMITED, priority 2016, dated 2020).

Entries after “also recorded” stand apart in the source; their conditions may differ.

One series in a line: solubility in water. It is filed as physicochemical.
Series [1] in a line: variable-temperature powder X-ray diffraction, crystal form stability at high temperatures. It is filed as physicochemical. To be noted: heated from 30° C. to 80° C.; powder X-ray diffraction at 35, 45, 55, 65 and 75° C. How it is done:
The crystalline form I of (R)-4-hydroxy-2-oxo-1-pyrrolidineacetamide of the invention was placed on a single crystal silicon sample stage, heated from 30° C. to 80° C., and subjected to powder X-ray diffraction measurement at 35° C., 45° C., 55° C., 65° C. and 75° C., respectively. […] It can be seen that the crystalline form I of (R)-4-hydroxy-2-oxo-1-pyrrolidineacetamide of the invention has good stability at high temperatures. When the crystalline form I of (R)-4-hydroxy-2-oxo-1-pyrrolidineacetamide of the invention is used for storage or formulation processing, the requirements on processing and storage temperatures are reduced.

As to `NC(=O)CN1C[C@H](O)CC1=O` [crystalline form I, (R)-4-hydroxy-2-oxo-1-pyrrolidineacetamide], the solubility in the series “solubility in water” is at least 90 mg/mL. The “crystal transformation on heating (stability at high temperatures)” value in series [1] was “does not show a phenomenon of crystal transformation; also recorded: does not exhibit crystal transformation phenomenon”.

For orientation: solubility means how much of the substance goes into solution per volume.
